In ChEMBL document CHEMBL3638530, “Viral polymerase inhibitors” (2013):

Target: Genome polyprotein (Hepatitis C virus genotype 3a (isolate NZL1) (HCV), UniProt Q81258)
Experiment: Inhibition Assay: HCV polymerase inhibition assay: HCV polymerase reactions were carried out using a modified mothod of Howe et al., Antimicrobial Agents and Chemotherapy 2004 48(12): 4813-4821.

Genome polyprotein, sequence (Q81258 2431-3021 limits assumed): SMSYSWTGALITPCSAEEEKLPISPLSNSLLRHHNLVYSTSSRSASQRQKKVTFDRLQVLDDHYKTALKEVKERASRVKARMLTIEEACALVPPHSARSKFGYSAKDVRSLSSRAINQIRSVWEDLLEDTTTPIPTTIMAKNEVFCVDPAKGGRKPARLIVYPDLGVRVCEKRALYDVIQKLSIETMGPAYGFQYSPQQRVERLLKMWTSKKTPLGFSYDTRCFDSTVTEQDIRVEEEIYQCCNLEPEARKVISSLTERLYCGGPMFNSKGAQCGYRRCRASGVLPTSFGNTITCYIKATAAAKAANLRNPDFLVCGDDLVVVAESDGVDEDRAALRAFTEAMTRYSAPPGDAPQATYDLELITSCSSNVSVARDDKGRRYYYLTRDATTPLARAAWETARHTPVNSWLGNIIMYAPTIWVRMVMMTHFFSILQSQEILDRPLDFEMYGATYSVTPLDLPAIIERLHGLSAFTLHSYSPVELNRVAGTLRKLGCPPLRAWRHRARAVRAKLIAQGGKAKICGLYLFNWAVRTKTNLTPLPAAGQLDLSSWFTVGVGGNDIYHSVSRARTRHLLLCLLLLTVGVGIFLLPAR

`CNC(=O)c1c2cc(C3CC3)c(N(CCCNC(=O)c3ncoc3C)S(C)(=O)=O)cc2nn1-c1ccc(Br)cc1` was tested, and the IC50 was 30 nM.
